Measurements from US20130158070A1, “CONJUGATES OF POLYUNSATURATED FATTY ACIDS AND AMINE-CONTAINING COMPOUNDS AND USES THEREOF” (priority 2010, published 2013).
Values joined by “and” are separate entries in the source; they are usually repeats but may differ in a detail not shown here. Equal values may be shown once.

How the values were obtained:
[1] = target: T1, COX-2 (Homo sapiens, UniProt P35354); experiment: COX-2 inhibition, enzyme immunoassay (EIA); format: biochemical; conditions: ratio of COX-1 IC50 to COX-2 IC50
T1 sequence (P35354 18-604): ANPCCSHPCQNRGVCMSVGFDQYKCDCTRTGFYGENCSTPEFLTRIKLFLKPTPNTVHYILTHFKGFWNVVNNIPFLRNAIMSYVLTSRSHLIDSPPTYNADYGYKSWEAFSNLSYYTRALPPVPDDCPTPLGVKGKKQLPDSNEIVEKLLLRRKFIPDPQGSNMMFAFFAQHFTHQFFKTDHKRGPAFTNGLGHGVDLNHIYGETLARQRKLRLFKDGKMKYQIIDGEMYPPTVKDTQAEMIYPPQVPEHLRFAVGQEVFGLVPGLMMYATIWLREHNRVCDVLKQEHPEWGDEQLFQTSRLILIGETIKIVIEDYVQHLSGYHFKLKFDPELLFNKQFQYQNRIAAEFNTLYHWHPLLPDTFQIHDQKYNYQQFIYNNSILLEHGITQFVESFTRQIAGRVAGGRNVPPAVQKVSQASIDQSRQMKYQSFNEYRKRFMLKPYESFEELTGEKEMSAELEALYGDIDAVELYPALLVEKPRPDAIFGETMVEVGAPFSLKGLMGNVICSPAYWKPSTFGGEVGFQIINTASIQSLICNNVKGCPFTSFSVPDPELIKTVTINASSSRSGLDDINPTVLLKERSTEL
Description: Exemplary conjugates as described herein were tested in vitro for inhibition of COX-1 and COX-2, using an enzyme immunoassay (EIA), as follows.
Cyclooxygenase catalyzes the first step in the biosynthesis of arachidonic acid (AA) to PGH2. PGF2α, produced from PGH2 by reduction with stannous chloride, is measured by enzyme immunoassay (ACETM competitive EIA).
Stock solutions of test compounds were dissolved in a minimum volume of DMSO. Briefly, to a series of supplied reaction buffer solutions (960 μl, 0.1M Tris-HCl pH 8.0 containing 5 mM EDTA and 2 mM phenol) with either COX-1 or COX-2 (10 μl) enzyme in the presence of heme (10 μl) were added 10 μl of various concentrations of test drug solutions (0.01, 0.1, 1, 10, 50, and 100 μM in a final volume of 1 ml). These solutions were incubated for a period of 5 minutes at 37° C. after which 10 μL of AA (100 μM) solution were added and the COX reaction was stopped by the addition of 50 μl of 1M HCl after 2 minutes. PGF2α, produced from PGH2 by reduction with stannous chloride was measured by enzyme immunoassay.
This assay is based on the competition between PGs and a PG-acetylcholinesterase conjugate (PG tracer) for a limited amount of PG antiserum. The amount of PG tracer that is able to bind to the PG antiserum is inversely proportional to the concentration of PGs in the wells since the concentration of PG tracer is held constant while the concentration of PGs varies. The concentration of the test compound causing 50% inhibition (IC50, μM) was calculated from the concentration-inhibition response curve (duplicate determinations).

[2] = target: T2, hERG channels (Homo sapiens, UniProt Q12809); experiment: hERG channels expressed in Xenopus oocytes, two-electrode voltage clamp; format: cell-based; parameters: initial current / final current / remaining current / avarage (remaining current): unit not given here; conditions: for final current: at −130 mV; for final current / remaining current / initial current: individual oocytes; for avarage (remaining current): 5 oocytes; for initial current: at −130 mV after pre-pulse to +40 mV
T2 construct: expressed in transfected cells; host or cells: Xenopus laevis oocytes injected with hERG cRNA (pSP64 vector, SP6 promoter)
T2 sequence (Q12809 whole entry): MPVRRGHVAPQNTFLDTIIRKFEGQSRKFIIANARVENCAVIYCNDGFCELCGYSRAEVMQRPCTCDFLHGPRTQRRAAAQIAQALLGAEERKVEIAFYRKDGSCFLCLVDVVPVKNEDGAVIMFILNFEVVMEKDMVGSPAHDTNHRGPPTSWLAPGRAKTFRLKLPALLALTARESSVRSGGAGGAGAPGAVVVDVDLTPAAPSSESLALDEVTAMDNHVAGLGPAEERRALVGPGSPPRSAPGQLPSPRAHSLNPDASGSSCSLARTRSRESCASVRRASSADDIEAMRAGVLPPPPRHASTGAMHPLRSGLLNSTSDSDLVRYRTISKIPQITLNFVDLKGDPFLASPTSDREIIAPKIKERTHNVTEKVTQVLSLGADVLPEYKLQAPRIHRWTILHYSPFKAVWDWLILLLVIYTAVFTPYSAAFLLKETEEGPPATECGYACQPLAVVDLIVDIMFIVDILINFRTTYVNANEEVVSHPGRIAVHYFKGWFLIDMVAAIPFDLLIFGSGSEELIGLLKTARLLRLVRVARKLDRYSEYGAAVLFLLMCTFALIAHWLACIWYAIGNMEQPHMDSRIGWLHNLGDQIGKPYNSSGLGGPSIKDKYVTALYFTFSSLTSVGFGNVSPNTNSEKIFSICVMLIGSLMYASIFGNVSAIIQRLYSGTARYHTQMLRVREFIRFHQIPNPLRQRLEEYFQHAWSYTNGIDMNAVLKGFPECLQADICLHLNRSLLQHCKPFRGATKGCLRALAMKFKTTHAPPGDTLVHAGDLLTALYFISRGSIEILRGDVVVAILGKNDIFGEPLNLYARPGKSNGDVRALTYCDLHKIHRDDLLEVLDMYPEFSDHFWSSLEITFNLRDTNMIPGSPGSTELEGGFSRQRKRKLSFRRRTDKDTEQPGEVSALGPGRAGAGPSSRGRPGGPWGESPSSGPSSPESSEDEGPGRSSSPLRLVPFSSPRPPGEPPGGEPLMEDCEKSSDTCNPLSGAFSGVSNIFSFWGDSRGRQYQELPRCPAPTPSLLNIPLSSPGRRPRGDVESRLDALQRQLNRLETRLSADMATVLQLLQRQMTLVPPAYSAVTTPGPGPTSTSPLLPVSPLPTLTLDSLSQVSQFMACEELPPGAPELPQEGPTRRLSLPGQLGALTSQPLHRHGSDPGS
Description: The sensitivity of hERG channels to two compounds, MWL001 also termed in the application as MW001 or MWL-001 and MWL002 also termed MW002 or MWL-002, was tested using the Xenopus oocyte expression system and the two-electrode voltage clamp technique. Activity of the compounds was tested at a concentration of 15 μM both from the external and from the internal sides of the membrane.
Clones: hERG gene (gi|26051269) was cloned within pSP64 expression vector (Promega) downstream to a SP6 RNA polymerase promoter. cRNA was prepared following digestion with EcoR I.
Electrophysiology: Xenopus laevis oocytes were isolated, defolliculated and maintained at 17° C. in ND-91 solution (in mM): 91 NaCl, 2 KCl, 1.8 CaCl2, 1 MgCl2, and 5 HEPES, pH 7.5, supplemented with 100 U/ml penicillin, 100 μg/ml streptomycin and 50 μg/ml gentamycin. Oocytes were injected with 20 or 40 nl, containing 7-14 ng of hERG cRNA. Whole-cell currents were measured 2-3 days after injection by the two-electrode voltage clamp technique (TEVC), using a GeneClamp 500B amplifier (Axon Instruments). Data were filtered at 2 kHz and sampled at 5 kHz with Clampex 9.0 software (Axon Instruments). The pipette was filled with 3M KCl and the bath solution contained (in mM): 4 KCl, 96 NaCl, 1 MgCl2, 0.3 CaCl2, 5 HEPES, pH 7.4. For external application of the compounds, stock solutions of either MWL001 or MWL002 were dissolved in the bath solution to a final concentration of 15 μM. During the experiments, bath solution exchange rate was about 2 ml/minutes. At this rate, more than 95% of the bath solution is replaced within 30 seconds. For internal blockade measurements, oocytes were injected with 46 nl of diluted (0.274 mM) compound solutions to achieve a final concentration within the oocyte of 15 μM.
Internal application: Compounds were injected into the oocyte to achieve a final concentration of 15 μM. Injection was made during current measurements and results were collected before and for 5 minutes after the injection. Current levels were determined in 4 seconds intervals at −130 mV, following a pre-pulse to +40 mV (see, Table 4 and FIG. 3).
External application: MWL compounds were applied at 15 μM concentration in the bath solution and current levels were determined in 4 seconds intervals at −130 mV, following a pre-pulse to +40 mV, for 15 minutes (see, Table 4). In addition, measurements were made to determine channel behavior throughout the entire physiological voltage range.
Table 4 presents the data obtained for the effect of MWL compounds on expressed hERG channels in individual oocytes which were either incubated (external) or injected (internal) with MWL compounds. Currents were monitored for 15 or 5 minutes, respectively.

[3] = external application 15 μM in bath, monitored 15 minutes
[4] = external application 15 μM, 15 minutes
[5] = external application, before exposure
[6] = internal application (injected) 15 μM, 5 minutes
[7] = internal application (injected) 15 μM, monitored 5 minutes
[8] = internal application, before injection

`CCC=CCC=CCC=CCC=CCC=CCC=CCCC(=O)N1CC(O)CC1C(=O)O` (stereo not shown) [MWL001] was tested, and the “Ratio (COX ½)” value [1] was 464.11, the final current [2, 3] was −12.8 and −15.5 and −15.8 and −10.8 and −26.0 and the “avarage (remaining current)” value [2, 4] was 95.7. The remaining current [2, 4] was 100.8 and 91.2 and 98.1 and 100.0 and 88.6, the initial current [2, 5] was −12.7 and −17.0 and −16.1 and −10.8 and −29.3 and the “avarage (remaining current)” value [2, 6] was 101.6. For the same compound, the remaining current [2, 6] was 95.6 and 101.8 and 112.3 and 100.0 and 98.4, the final current [2, 7] was −6.5 and −11.1 and −15.5 and −9.5 and −18.5 and the initial current [2, 8] was −6.8 and −10.9 and −13.8 and −9.5 and −18.8.

In the case of `CC/C=C\C/C=C\C/C=C\C/C=C\C/C=C\C/C=C\CCC(=O)NCCS(=O)(=O)O` [MWL002, N-docosa-4,7,10,13,16,19-hexaenoyl-taurine], the “Ratio (COX ½)” value [1] is reported as 27.86, the “effect on hERG channel currents” value ([2]; 15 μM, internal and external exposure) is reported as “no sensitivity” and the final current [2, 3] is reported as −7.1 and −5.0 and −7.2 and −18.0 and −9.0. The “avarage (remaining current)” value [2, 4] was 108.2, the remaining current [2, 4] was 91.6 and 109.9 and 120.0 and 102.9 and 116.9 and the initial current [2, 5] was −7.8 and −4.6 and −6.0 and −17.5 and −7.7. For the same compound, the “avarage (remaining current)” value [2, 6] was 106.9, the remaining current [2, 6] was 109.6 and 103.2 and 101.8 and 107.5 and 112.7 and the final current [2, 7] was −13.7 and −6.5 and −11.5 and −7.2 and −8.0. The initial current [2, 8] was −12.5 and −6.3 and −11.3 and −6.7 and −7.1.
